According to US20250304563A1, “ACTIVATORS OF EFFECTOR T CELLS” (Orum Therapeutics, Inc., priority 2022, published 2025):

Tests used:
Human primary T cells [1] = test: T cell activation: CD69 surface expression by flow cytometry; type: cell-based; conditions: fold over anti-CD3 stimulated background normalized to Compound 141A; for CD69 10 nM: 10 nM compound; for CD69 100 nM: 100 nM compound
Method in brief: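 Read-out is flow-cytometric CD69 surface staining, expressed as fold increase over anti-CD3-stimulated background and normalized to Compound 141A. Human pan T cells from PBMC or LeukoPaks were plated on OKT3-coated wells in serum-free XVivo-15. Compound dilutions were added for 48 h at 37° C, 5% CO2.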

[2] = system: human peripheral blood pan-T cells; test: T cell activation by small molecule inhibitors of Cbl-b (biomarker flow cytometry); type: cell-based; conditions: 10 μM, 48 hours
Description: Cryopreserved human peripheral blood pan-T cells (StemCell, 70024) were defrosted and resuspended in Immunocult-XF T cell Expansion Medium (StemCell, 10981). Cells were plated at 8×10^5 cells per well in 24 well plates, in presence or absence of pre-coated anti-CD3 (OKT3) antibody (ThermoFisher, 16-0037-85). Pre-coating of plates was done by diluting anti-CD3 antibody to 10 μg/mL in PBS and adding 1 ml to each well. Plates were incubated at 4° C. overnight or at 37° C. for 2 hours and washed once with PBS before use. Dilution of each small molecule cbl-b inhibitor was added. Untreated cell was used as a control. Plates were incubated for 48 hours at 37° C. with 5% CO2. T cells were fixed and permeabilized with Intracellular Fixation & Permeabilization Buffer Set (ThermoFisher, 88-8824), and continuously stained with one of PE-conjugated antibody listed in Table 10. Stained T cells were then analyzed with by flow cytometry (ThermoFisher Attune NxT). The percent of positive cells of each treated group was normalized with untreated cell and sorted into bins as follows: fold over background values from 10 to 14.9: range “A;” values from 5.0 to 9.9: range “B;” values from 2.0 to 4.9: range “C;” and values from 0.1 to 1.9: range “D.” Only for Notch1, geometric mean was used.

Human primary T cells [3] = test: T cell activation: secreted IL-2; type: cell-based; conditions: 48 hours, fold over background normalized to Compound 141A; for IL-2 1 nM: 1 nM compound; for IL-2 10 nM: 10 nM compound; for IL-2 100 nM: 100 nM compound
Method in brief: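 IL-2 values are fold over anti-CD3/CD28 background, normalized to a reference compound and sorted into ranges. They come from supernatants of human pan-T cells captured on anti-CD3-coated plates and exposed 48 h, 37° C., to duplicate compound dilutions, measured with cytometric beads.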

[4] = biological target: Cbl-b (36-427 aa truncated form, N-terminus Avi-tag) (Homo sapiens (Human), UniProt Q13191); test: Cbl-b binding: TR-FRET displacement of BODIPY-FL probe
Sequence of Cbl-b (36-427 aa truncated form, N-terminus Avi-tag) (Q13191 36-427): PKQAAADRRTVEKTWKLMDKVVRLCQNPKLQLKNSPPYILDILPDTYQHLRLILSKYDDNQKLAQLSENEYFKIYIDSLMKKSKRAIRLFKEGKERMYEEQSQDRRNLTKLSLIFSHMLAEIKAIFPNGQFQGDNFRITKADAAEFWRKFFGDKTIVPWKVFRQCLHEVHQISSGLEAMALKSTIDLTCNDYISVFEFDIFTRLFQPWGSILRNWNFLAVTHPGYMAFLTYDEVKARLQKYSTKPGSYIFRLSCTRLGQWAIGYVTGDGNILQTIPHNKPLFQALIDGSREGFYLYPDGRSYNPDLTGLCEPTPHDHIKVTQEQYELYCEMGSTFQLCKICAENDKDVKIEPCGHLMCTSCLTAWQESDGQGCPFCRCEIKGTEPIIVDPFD
Method in brief: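 IC50 from loss of terbium–BODIPY-FL TR-FRET signal as compounds compete off a fluorescent Cbl-b inhibitor probe (1 uM) for 1 h at RT. Protein: N-Avi-tagged human Cbl-b 36-427 on streptavidin-terbium, 20 mM HEPES pH 7.5 buffer.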

Human primary T cells [5] = test: T cell activation: secreted IFN-y; type: cell-based; conditions: 48 hours, fold over background normalized to Compound 141A; for IFN-y 1 nM: 1 nM compound; for IFN-y 10 nM: 10 nM compound
Method in brief: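 Values are binned ranges (A–D) of fold increase over anti-CD3/CD28 background, normalized to a reference compound, for IFN-γ in supernatants measured by bead array. Pan-T cells from donor PBMC or LeukoPaks were stimulated on anti-CD3-coated wells (10 μg/mL coating) in serum-free medium with compound for 48 h at 37 °C.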

[6] = +CD3 (pre-coated anti-CD3 OKT3)

Q: Which “CD69 10 nM” value (Human primary T cells [1]) does the source give for `CCNc1cc(C2(Cc3nncn3C)COC2)cc(N2Cc3c(SC)cc(CN4CCC[C@H](C)C4)cc3C2=O)n1` [Compound 126, 2-[6-(ethylamino)-4-{3-[(4-methyl-1,2,4-triazol-3-yl)methyl]oxetan-3-yl}pyridin-2-yl]-6-{[(3S)-3-methylpiperidin-1-yl]methyl}-4-(methylsulfanyl)-3H-isoindol-1-one] here?
A: A (values between 0.81 and 1.10: range “A”)

Q: What about the “CD69 100 nM” value (Human primary T cells [1]) of the same compound?
A: A (values between 0.81 and 1.10: range “A”)

Q: What about the “Notch 1, geometric mean normalized with untreated cell (fold over background)” value [2, 6] of the same compound?
A: C (values from 2.0 to 4.9: range “C;”)

Q: And the “pCD3zeta, percent of positive cells normalized with untreated cell (fold over background)” value [2, 6]?
A: D (values from 0.1 to 1.9: range “D.”)

Q: And the “pHS1, percent of positive cells normalized with untreated cell (fold over background)” value [2, 6]?
A: C (values from 2.0 to 4.9: range “C;”)

Q: And the “pLYN, percent of positive cells normalized with untreated cell (fold over background)” value [2, 6]?
A: D (values from 0.1 to 1.9: range “D.”)

Q: What about the “pPLCg1, percent of positive cells normalized with untreated cell (fold over background)” value [2, 6] of the same compound?
A: C (values from 2.0 to 4.9: range “C;”)

Q: And the “pPLCg2, percent of positive cells normalized with untreated cell (fold over background)” value [2, 6]?
A: D (values from 0.1 to 1.9: range “D.”)

Q: And the “pZAP70, percent of positive cells normalized with untreated cell (fold over background)” value [2, 6]?
A: C (values from 2.0 to 4.9: range “C;”)

Q: What about the “Notch 1, geometric mean normalized with untreated cell (fold over background)” value ([2]; −CD3) of the same compound?
A: D (values from 0.1 to 1.9: range “D.”)

Q: And the “pCD3zeta, percent of positive cells normalized with untreated cell (fold over background)” value ([2]; −CD3)?
A: C (values from 2.0 to 4.9: range “C;”)

Q: What about the “pHS1, percent of positive cells normalized with untreated cell (fold over background)” value ([2]; −CD3) of the same compound?
A: B (values from 5.0 to 9.9: range “B;”)

Q: And the “pLYN, percent of positive cells normalized with untreated cell (fold over background)” value ([2]; −CD3)?
A: C (values from 2.0 to 4.9: range “C;”)

Q: And the “pPLCg1, percent of positive cells normalized with untreated cell (fold over background)” value ([2]; −CD3)?
A: C (values from 2.0 to 4.9: range “C;”)

Q: What about the “pPLCg2, percent of positive cells normalized with untreated cell (fold over background)” value ([2]; −CD3) of the same compound?
A: B (values from 5.0 to 9.9: range “B;”)

Q: And the “pZAP70, percent of positive cells normalized with untreated cell (fold over background)” value ([2]; −CD3)?
A: C (values from 2.0 to 4.9: range “C;”)

Q: What about the “IL-2 1 nM” value (Human primary T cells [3]) of the same compound?
A: C (values between 0.10 and 0.30: range “C”)

Q: And the “IL-2 10 nM” value (Human primary T cells [3])?
A: B (values between 0.31 and 0.79: range “B”)

Q: And the “IL-2 100 nM” value (Human primary T cells [3])?
A: A (between 0.80 and 1.40: range “A”)

Q: And the IC50 [4]?
A: 1 to 5 nM

Q: What about the “IFN-y 1 nM” value (Human primary T cells [5]) of the same compound?
A: B (values between 0.31 and 1.00: range “B;”)

Q: And the “IFN-y 10 nM” value (Human primary T cells [5])?
A: B (values between 0.31 and 1.00: range “B;”)

Q: And the “IFN-y 100 nM” value (Human primary T cells [5]; 100 nM compound)?
A: A (fold over background between 1.10 and 2.00: range “A”)

Q: For `CC1CC(c2cc(NCCC#N)nc(N3Cc4c(cc(CN5CCC[C@H](C)C5)cc4C(F)(F)F)C3=O)c2)(c2nncn2C)C1` (stereo partly drawn) [Compound 192, 3-{[6-(6-{[(3S)-3-methylpiperidin-1-yl]methyl}-1-oxo-4-(trifluoromethyl)-3H-isoindol-2-yl)-4-[(1r,3s)-3-methyl-1-(4-methyl-1,2,4-triazol-3-yl)cyclobutyl]pyridin-2-yl]amino}propanenitrile], which “CD69 1 nM” value (Human primary T cells [1]; 1 nM compound) is on record?
A: C (values between 0.30 and 0.60: range “C”)

Q: What about the “CD69 10 nM” value (Human primary T cells [1]) of the same compound?
A: A (values between 0.81 and 1.10: range “A”)

Q: And the “CD69 100 nM” value (Human primary T cells [1])?
A: X (fold over background values between 1.11 and 1.6: range “X”)

Q: What about the “Notch 1, geometric mean normalized with untreated cell (fold over background)” value [2, 6] of the same compound?
A: C (values from 2.0 to 4.9: range “C;”)

Q: And the “pCD3zeta, percent of positive cells normalized with untreated cell (fold over background)” value [2, 6]?
A: D (values from 0.1 to 1.9: range “D.”)

Q: What about the “pHS1, percent of positive cells normalized with untreated cell (fold over background)” value [2, 6] of the same compound?
A: C (values from 2.0 to 4.9: range “C;”)

Q: What about the “pLYN, percent of positive cells normalized with untreated cell (fold over background)” value [2, 6] of the same compound?
A: D (values from 0.1 to 1.9: range “D.”)

Q: And the “pPLCg1, percent of positive cells normalized with untreated cell (fold over background)” value [2, 6]?
A: C (values from 2.0 to 4.9: range “C;”)

Q: And the “pPLCg2, percent of positive cells normalized with untreated cell (fold over background)” value [2, 6]?
A: D (values from 0.1 to 1.9: range “D.”)

Q: And the “pZAP70, percent of positive cells normalized with untreated cell (fold over background)” value [2, 6]?
A: C (values from 2.0 to 4.9: range “C;”)

Q: What about the “Notch 1, geometric mean normalized with untreated cell (fold over background)” value ([2]; −CD3) of the same compound?
A: D (values from 0.1 to 1.9: range “D.”)

Q: What about the “pCD3zeta, percent of positive cells normalized with untreated cell (fold over background)” value ([2]; −CD3) of the same compound?
A: C (values from 2.0 to 4.9: range “C;”)

Q: What about the “pHS1, percent of positive cells normalized with untreated cell (fold over background)” value ([2]; −CD3) of the same compound?
A: A (fold over background values from 10 to 14.9: range “A;”)

Q: And the “pLYN, percent of positive cells normalized with untreated cell (fold over background)” value ([2]; −CD3)?
A: C (values from 2.0 to 4.9: range “C;”)

Q: What about the “pPLCg1, percent of positive cells normalized with untreated cell (fold over background)” value ([2]; −CD3) of the same compound?
A: B (values from 5.0 to 9.9: range “B;”)

Q: And the “pPLCg2, percent of positive cells normalized with untreated cell (fold over background)” value ([2]; −CD3)?
A: A (fold over background values from 10 to 14.9: range “A;”)

Q: And the “pZAP70, percent of positive cells normalized with untreated cell (fold over background)” value ([2]; −CD3)?
A: C (values from 2.0 to 4.9: range “C;”)

Q: What about the “IL-2 1 nM” value (Human primary T cells [3]) of the same compound?
A: D (values between 0.01 and 0.09: range “D.”)

Q: And the “IL-2 10 nM” value (Human primary T cells [3])?
A: B (values between 0.31 and 0.79: range “B”)

Q: What about the “IL-2 100 nM” value (Human primary T cells [3]) of the same compound?
A: X (fold over background values between 1.41 and 1.8: range “X”)

Q: What about the “IFN-y 1 nM” value (Human primary T cells [5]) of the same compound?
A: B (values between 0.31 and 1.00: range “B;”)

Q: What about the “IFN-y 10 nM” value (Human primary T cells [5]) of the same compound?
A: B (values between 0.31 and 1.00: range “B;”)
